Patent US20210369684A1 (MOUNT TAM THERAPEUTICS, INC., priority 2018, published 2021)

What was measured:
6-OHDA injected mice [1] = assay: Anti-TH immunohistochemistry, 6-OHDA-induced striatal denervation; type: in vivo, mouse; settings: one-way ANOVA, FIG. 3B
Method: Immunohistochemistry analysis using anti-tyrosine hydroxylase (TH) antibody was performed in mouse midbrain sections to quantify 6-OHDA-induced striatal denervation in mice injected with 6-OHDA and non-injected (control) sides of the brain. […] In contrast, both the 6-OHDA/rapamycin-treated and the 6-OHDA/Formula II-treated sides of the brain show increased staining with the anti-TH antibody, as indicated by the dark shading in those figures. FIG. 3B presents the mean and standard error of the mean (SEM) of the integrated density of anti-TH antibody staining in the striatum, as well as statistical analysis of the results for the groups of mice.

6-OHDA injected mice [2] = assay: Anti-TH immunohistochemistry, 6-OHDA-induced neuronal loss (TH-positive somas in SN); type: in vivo, mouse; settings: one-way ANOVA, FIG. 4B
Method: Immunohistochemistry analysis using anti-tyrosine hydroxylase (TH) antibody was also performed to quantify 6-OHDA-induced neuronal loss in mice injected with 6-OHDA and non-injected (control) sides of the brain. […] FIG. 4B presents the mean and standard error of the mean (SEM) as well as statistical analysis of the results.

`CO[C@H]1C[C@@H]2CC[C@@H](C)[C@@](O)(O2)C(=O)C(=O)N2CCCC[C@H]2C(=O)O[C@H]([C@H](C)C[C@@H]2CC[C@@H](O)[C@H](OC)C2)CC(=O)[C@H](C)/C=C(\C)[C@@H](O)[C@@H](OC)C(=O)[C@H](C)C[C@H](C)/C=C/C=C/C=C/1C` [rapamycin, Rapamycin, reference compound] was tested, and the “integrated density of anti-TH staining in striatum, p versus vehicle control” value (6-OHDA injected mice [1]) was under 0.05 and the “TH+ neuronal loss, p versus vehicle control” value (6-OHDA injected mice [2]) was under 0.001.
